We go through 24 molecules from patent publication US12071434B2, “Heterocyclic compound” (Takeda Pharmaceutical Company Limited, priority 2018, dated 2024).

The structures appear in SMILES notation.

This test addresses T1, human orexin type 2 receptor (Homo sapiens, UniProt O43614).
T1 construct: expressed in transfected cells
T1 sequence (O43614 1-444): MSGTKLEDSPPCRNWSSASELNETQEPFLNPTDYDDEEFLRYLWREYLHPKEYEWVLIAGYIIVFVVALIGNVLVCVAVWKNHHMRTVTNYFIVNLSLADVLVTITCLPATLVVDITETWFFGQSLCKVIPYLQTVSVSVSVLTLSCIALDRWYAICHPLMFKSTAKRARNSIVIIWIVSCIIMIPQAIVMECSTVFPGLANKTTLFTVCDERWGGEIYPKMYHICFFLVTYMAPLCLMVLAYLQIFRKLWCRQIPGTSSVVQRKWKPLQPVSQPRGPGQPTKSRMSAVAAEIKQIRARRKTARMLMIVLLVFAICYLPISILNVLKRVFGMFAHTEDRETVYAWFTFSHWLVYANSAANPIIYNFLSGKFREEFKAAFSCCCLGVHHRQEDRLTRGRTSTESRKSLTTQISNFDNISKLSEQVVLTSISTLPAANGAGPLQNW
The test can be described thus: Measurement of orexin type 2 receptor agonist activity (calcium fluorescence, Fluo-4 AM, FDSS) in CHO cells forcibly expressing human OX2 receptor. Format: cell-based. The settings on record: test compound 3 μM, DMSO = 0%, orexin A (human) 10 nM = 100%. In short, it runs like this: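 CHO-dhfr cells stably expressing human OX2 receptor, loaded with Fluo-4 AM plus probenecid for 30 min at 37 °C, then 30 min at room temperature. Calcium fluorescence read for about 2 min 40 s after compound addition. Activity (%) scaled between DMSO (0%) and 10 nM human orexin A (100%).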
Consider `CC(C)n1cnc2c(c1=O)[C@@H](Cc1cccc(-c3ccccc3)c1)[C@@H](NS(=O)(=O)CF)CC2` (relative stereo) [Example 145, rel-N-[(5R,6S)-5-[([1,1′-biphenyl]-3-yl)methyl]-4-oxo-3-(propan-2-yl)-3,4,5,6,7,8-hexahydroquinazolin-6-yl]-1-fluoromethanesulfonamide], for which the “0X2R agonist activity (3 μM, %)” value amounted to 92%.
Next, `CCn1ccc2c(c1=O)[C@@H](Cc1cccc(-c3cccc(C)c3F)c1)[C@@H](NS(C)(=O)=O)CC2` (racemic) [Example 120, rac-N-{(7S,8R)-2-ethyl-8-[(2′-fluoro-3′-methyl[1,1′-biphenyl]-3-yl)methyl]-1-oxo-1,2,5,6,7,8-hexahydroisoquinolin-7-yl}methanesulfonamide]: 98%.
Consider `CC(C)n1c(=O)c2c(n1C)CCC(NS(C)(=O)=O)C2Cc1cccc(-c2ccccc2)c1` [Example 208, rel-N-[(4aR,5S)-4-[([1,1′-biphenyl]-3-yl)methyl]-1-methyl-3-oxo-2-(propan-2-yl)-2,3,4,5,6,7-hexahydro-1H-indazol-5-yl]methanesulfonamide], for which the “0X2R agonist activity (3 μM, %)” value is 95%.
As for `Cc1ccc2n(c1=O)C(Cc1cccc(-c3cccc(F)c3)c1F)C(NC(=O)[C@@H]1CCCO1)CC2` (stereo in doubt) [Example 54, (2S)-N-{(3S*,4S*)-4-[(2,3′-difluoro[1,1′-biphenyl]-3-yl)methyl]-7-methyl-6-oxo-1,3,4,6-tetrahydro-2H-quinolizin-3-yl}oxolane-2-carboxamide], the “0X2R agonist activity (3 μM, %)” value came to 97%.
For `CCS(=O)(=O)N[C@H]1CCc2ncn(C(C)C)c(=O)c2[C@H]1Cc1cccc(-c2cc(C)ccn2)c1` (racemic) [Example 98, rac-N-[(5R,6S)-5-{[3-(4-methylpyridin-2-yl)phenyl]methyl}-4-oxo-3-(propan-2-yl)-3,4,5,6,7,8-hexahydroquinazolin-6-yl]ethanesulfonamide], the “0X2R agonist activity (3 μM, %)” value was found to be 107%.
Next, `CN(C)c1ccc2n(c1=O)[C@@H](Cc1cccc(-c3ccccc3)c1)[C@@H](NS(C)(=O)=O)CC2` (racemic) [Example 31, rac-N-[(3S,4S)-4-[([1,1′-biphenyl]-3-yl)methyl]-7-(dimethylamino)-6-oxo-1,3,4,6-tetrahydro-2H-quinolizin-3-yl]methanesulfonamide]: 100%.
For the molecule `CCn1c(C)nc2c(c1=O)C(Cc1cccc(-c3cc(F)cc(F)c3)c1)C(NS(C)(=O)=O)CC2` (racemic) [Example 75], the “0X2R agonist activity (3 μM, %)” value turned out to be 92%.
Turning to `CCc1ccc2n(c1=O)C(Cc1cccc(-c3ccccc3)c1)C(NS(C)(=O)=O)CC2` (racemic) [Example 27, rac-N-{(3S,4S)-4-[([1,1′-biphenyl]-3-yl)methyl]-7-ethyl-6-oxo-1,3,4,6-tetrahydro-2H-quinozilin-3-yl}methanesulfonamide], the “0X2R agonist activity (3 μM, %)” value is 99%.
With `CS(=O)(=O)N[C@H]1CCc2ccc(C#N)c(=O)n2[C@H]1Cc1cccc(-c2ccccc2)c1` (racemic) [Example 28, rac-N-{(3S,4S)-4-[([1,1′-biphenyl]-3-yl)methyl]-7-cyano-6-oxo-1,3,4,6-tetrahydro-2H-quinolizin-3-yl}methanesulfonamide], the “0X2R agonist activity (3 μM, %)” value was determined as 97%.
In the case of `CCn1cc2n(c1=O)[C@@H](Cc1cccc(-c3ccccc3)c1F)[C@@H](NS(C)(=O)=O)CC2` (racemic) [Example 204, rac-N-{(5S,6S)-2-ethyl-5-[(2-fluoro[1,1′-biphenyl]-3-yl)methyl]-3-oxo-2,3,5,6,7,8-hexahydroimidazo[1,5-a]pyridin-6-yl}methanesulfonamide] it was 91%; in that of `CC(C)n1cnc2c(c1=O)[C@@H](Cc1csc(-c3ccccc3)n1)[C@@H](NS(=O)(=O)C1CC1)CC2` (relative stereo) [Example 169, rel-N-[(5R,6S)-4-oxo-5-[(2-phenyl-1,3-thiazol-4-yl)methyl]-3-(propan-2-yl)-3,4,5,6,7,8-hexahydroquinazolin-6-yl]cyclopropanesulfonamide], 91%.
As to `CC(C)n1cnc2c(c1=O)[C@@H](Cc1cccc(-c3ccccc3)c1F)[C@@H](NS(=O)(=O)C1CC1)[C@H](F)C2` (relative stereo) [Example 206, rel-N-[(5R,6R,7R)-7-fluoro-5-[(2-fluoro[1,1′-biphenyl]-3-yl)methyl]-4-oxo-3-(propan-2-yl)-3,4,5,6,7,8-hexahydroquinazolin-6-yl]cyclopropanesulfonamide], the “0X2R agonist activity (3 μM, %)” value came to 96%.
In the case of `CC(C)n1cnc2c(c1=O)[C@@H](Cc1csc(-c3ccccc3F)n1)[C@@H](NS(=O)(=O)C1(F)CC1)CC2` (relative stereo) [Example 156, rel-1-fluoro-N-[(5R,6S)-5-{[2-(2-fluorophenyl)-1,3-thiazol-4-yl]methyl}-4-oxo-3-(propan-2-yl)-3,4,5,6,7,8-hexahydroquinazolin-6-yl]cyclopropane-1-sulfonamide] it was 93%; in that of `CCc1ccc2n(c1=O)C(Cc1cccc(-c3cccc(F)c3)c1F)C(NC(=O)C(=O)N(C)C)CC2` (racemic) [Example 39, rac-N~2~-{(3S,4S)-4-[2,3′-difluoro[1,1′-biphenyl]-3-yl)methyl]-7-ethyl-6-oxo-1,3,4,6-tetrahydro-2H-quinolizin-3-yl}-N~1~,N~1~-dimethylethanediamide], 89%; in that of `CCc1cccc(C[C@H]2[C@@H](NS(C)(=O)=O)CCc3ccc(CC)c(=O)n32)c1` (racemic) [Example 135, rac-N-{(3S,4S)-7-ethyl-4-[(3-ethylphenyl)methyl]-6-oxo-1,3,4,6-tetrahydro-2H-quinolizin-3-yl}methanesulfonamide], 90%.
In the case of `CC(C)c1ccc2n(c1=O)[C@@H](Cc1cccc(-c3cccc(F)c3)c1F)[C@@H](NC(=O)C(=O)N(C)C)CC2` (racemic) [Example 40, rac-N~2~-[(3S,4S)-4-[(2,3′-difluoro[1,1′-biphenyl]-3-yl)methyl]-6-oxo-7-(propan-2-yl)-1,3,4,6-tetrahydro-2H-quinolizin-3-yl]-N~1~,N~1~-dimethylethanediamide] it was 93%; in that of `CS(=O)(=O)N[C@H]1CCc2cccc(=O)n2[C@H]1Cc1cccc(-c2ccccc2)c1` (racemic) [Example 1, rac-N-{(3S,4S)-4-[([1,1′-biphenyl]-3-yl)methyl]-6-oxo-1,3,4,6-tetrahydro-2H-quinolizin-3-yl}methanesulfonamide], 79%.
Take `CC(C)n1cnc2c(c1=O)[C@@H](Cc1cccc(-c3ccccc3)c1F)[C@@H](NS(C)(=O)=O)[C@H](F)[C@H]2F` (racemic) [Example 198, rac-N-[(5R,6R,7S,8S)-7,8-difluoro-5-[(2-fluoro[1,1′-biphenyl]-3-yl)methyl]-4-oxo-3-(propan-2-yl)-3,4,5,6,7,8-hexahydroquinazolin-6-yl]methanesulfonamide]: the “0X2R agonist activity (3 μM, %)” value is 85%.
For `CCn1ccc2c(c1=O)[C@@H](Cc1cccc(-c3ccccc3)c1F)[C@@H](NS(C)(=O)=O)CC2` (racemic) [Example 87, rac-N-{(7S,8R)-2-ethyl-8-[(2-fluoro[1,1′-biphenyl]-3-yl)methyl]-1-oxo-1,2,5,6,7,8-hexahydroisoquinolin-7-yl}methanesulfonamide], the “0X2R agonist activity (3 μM, %)” value turned out to be 97%.
In the case of `CCn1c(C)nc2c(c1=O)C(Cc1cccc(-c3ccccc3)c1)C(NS(C)(=O)=O)CC2` (racemic) [Example 71, rac-N-{(5R,6S)-5-[([1,1′-biphenyl]-3-methyl]-3-ethyl-2-methyl-4-oxo-3,4,5,6,7,8-hexahydroquinazolin-6-yl}methanesulfonamide] it was 90%.
With `CCn1ccc2c(c1=O)[C@@H](Cc1cccc(-c3ccccc3)c1F)[C@@H](NS(C)(=O)=O)CC2=O` (racemic) [Example 163, rac-N-{(7S,8R)-2-ethyl-8-[(2-fluoro[1,1′-biphenyl]-3-yl)methyl]-1,5-dioxo-1,2,5,6,7,8-hexahydroisoquinolin-7-yl}methanesulfonamide], the “0X2R agonist activity (3 μM, %)” value stood at 94%.
Next, `CCc1ccc2n(c1=O)[C@@H](Cc1cccc(-c3cccc(F)c3)c1F)[C@@H](NC(=O)C(=O)N(C)C)CC2` (relative stereo) [Example 43, rel-N~2~-{(3S,4S)-4-[(2,3′-difluoro[1,1′-biphenyl]-3-yl)methyl]-7-ethyl-6-oxo-1,3,4,6-tetrahydro-2H-quinolizin-3-yl}-N~1~,N~1~-dimethylethanediamide]: 90%.
Next, `CCS(=O)(=O)N[C@H]1CCc2ncn(C(C)C)c(=O)c2[C@H]1Cc1cccc(-c2cc(F)cc(F)c2)c1` [Example 177, N-[(5R,6S)-5-[(3′,5′-difluoro[1,1′-biphenyl]-3-yl)methyl]-4-oxo-3-(propan-2-yl)-3,4,5,6,7,8-hexahydroquinazolin-6-yl]ethanesulfonamide]: 95%.
On to `CC(C)c1nn(C)c2c(c1=O)[C@@H](Cc1csc(-c3ccccc3)n1)[C@@H](NS(C)(=O)=O)C[C@H]2F` (racemic) [Example 207, rac-N-[(5R,6S,8R)-8-fluoro-1-methyl-4-oxo-5-[(2-phenyl-1,3-thiazol-4-yl)methyl]-3-(propan-2-yl)-1,4,5,6,7,8-hexahydrocinnolin-6-yl]methanesulfonamide], for which the “0X2R agonist activity (3 μM, %)” value is recorded as 93%.
